Drawing on ChEMBL document CHEMBL1148026, “Oxadiazole mannich bases: synthesis and antimycobacterial activity” (Bioorg Med Chem Lett, 2007), this text covers Activity and MIC for 15 molecules.

Series [1] concerns Vero. Kind of series: Toxicity against Vero cells at 62.5 ug/ml after 72 hrs by MTT assay. It counts as cell-based. The settings on record: chlorocebus sabaeus. (Formazan colour is commonly taken as a measure of viable cells.)
The subject of series [2] is Mycobacterium tuberculosis. Nature of the series: Antimycobacterial activity against Mycobacterium tuberculosis H37Rv by agar dilution method using double dilution technique. The format is functional. (In agar dilution the substance is mixed into plates at graded concentrations.)

≈ marks a conversion by molar mass, not a printed value.

For the molecule `O=S(=O)(c1ccc(NC(Cc2ccco2)n2nc(Cc3ccccc3)oc2=S)cc1)c1ccc(NC(Cc2ccco2)n2nc(Cc3ccccc3)oc2=S)cc1` (centres undefined), the Activity result in series [1] is recorded as “Non-toxic”. For the same molecule, the MIC (commonly the lowest concentration found to suppress growth) in series [2] was 0.24 µM (≈ 0.196 µg/mL).

For the molecule `O=S(=O)(c1ccc(NC(Cc2ccco2)n2nc(COc3ccccc3)oc2=S)cc1)c1ccc(NC(Cc2ccco2)n2nc(COc3ccccc3)oc2=S)cc1` (centres undefined), the Activity result in series [1] is given as “Non-toxic”. For the same molecule, the MIC in series [2] amounted to 0.14 µM (≈ 0.119 µg/mL).

Regarding `O=S(=O)(c1ccc(NC(Cc2ccco2)n2nc(-c3ccc(Nc4ccccc4)cc3)oc2=S)cc1)c1ccc(NC(Cc2ccco2)n2nc(-c3ccc(Nc4ccccc4)cc3)oc2=S)cc1` (centres undefined), the Activity result in series [1] was “Non-toxic”. This molecule also registered a minimal inhibitory concentration (MIC) in series [2] of 0.66 µM (≈ 0.641 µg/mL). The corresponding values for `O=S(=O)(c1ccc(NC(Cc2ccco2)n2nc(COc3ccc4ccccc4c3)oc2=S)cc1)c1ccc(NC(Cc2ccco2)n2nc(COc3ccc4ccccc4c3)oc2=S)cc1` (centres undefined) are “Non-toxic” and 0.1 µM (≈ 0.0949 µg/mL). Regarding `O=S(=O)(c1ccc(NC(c2ccccc2)n2nc(-c3ccccc3)oc2=S)cc1)c1ccc(NC(c2ccccc2)n2nc(-c3ccccc3)oc2=S)cc1` (centres undefined), the Activity entry in series [1] is given as “Non-toxic”. Also, in series [2], the MIC was found to be 1.72 µM (≈ 1.34 µg/mL). The corresponding values for `O=[N+]([O-])c1ccc(-c2nn(C(Cc3ccco3)Nc3ccc(S(=O)(=O)c4ccc(NC(Cc5ccco5)n5nc(-c6ccc([N+](=O)[O-])cc6)oc5=S)cc4)cc3)c(=S)o2)cc1` (centres undefined) are “Non-toxic” and 0.42 µM (≈ 0.369 µg/mL). The corresponding values for `O=S(=O)(c1ccc(NC(c2ccccc2)n2nc(COc3ccccc3)oc2=S)cc1)c1ccc(NC(c2ccccc2)n2nc(COc3ccccc3)oc2=S)cc1` (centres undefined) are “Non-toxic” and 0.98 µM (≈ 0.824 µg/mL).

With `O=S(=O)(c1ccc(NC(c2ccccc2)n2nc(COc3ccc4ccccc4c3)oc2=S)cc1)c1ccc(NC(c2ccccc2)n2nc(COc3ccc4ccccc4c3)oc2=S)cc1` (centres undefined), the Activity entry in series [1] is recorded as “Non-toxic”. In series [2], inhibition of growth (MIC) required 0.42 µM (≈ 0.395 µg/mL). The corresponding values for `O=S(=O)(c1ccc(NC(Cc2ccco2)n2nc(COc3cccc4ccccc34)oc2=S)cc1)c1ccc(NC(Cc2ccco2)n2nc(COc3cccc4ccccc34)oc2=S)cc1` (centres undefined) are “Non-toxic” and 0.72 µM (≈ 0.683 µg/mL).

As to `O=S(=O)(c1ccc(NC(c2ccccc2)n2nc(Cc3ccccc3)oc2=S)cc1)c1ccc(NC(c2ccccc2)n2nc(Cc3ccccc3)oc2=S)cc1` (centres undefined), the Activity result in series [1] is reported as “Non-toxic”. The molecule also had a minimum inhibitory concentration (MIC) in series [2] of 1.29 µM (≈ 1.04 µg/mL). Taken in the same sequence, the figures for `O=S(=O)(c1ccc(NC(Cc2ccco2)n2nc(-c3ccccc3)oc2=S)cc1)c1ccc(NC(Cc2ccco2)n2nc(-c3ccccc3)oc2=S)cc1` (centres undefined) were “Non-toxic” and 0.94 µM (≈ 0.742 µg/mL). The corresponding values for `O=S(=O)(c1ccc(NC(c2ccccc2)n2nc(-c3ccc(Nc4ccccc4)cc3)oc2=S)cc1)c1ccc(NC(c2ccccc2)n2nc(-c3ccc(Nc4ccccc4)cc3)oc2=S)cc1` (centres undefined) are “Non-toxic” and 1.65 µM (≈ 1.59 µg/mL). Taken in the same sequence, the figures for `O=S(=O)(c1ccc(NC(c2ccccc2)n2nc(COc3cccc4ccccc34)oc2=S)cc1)c1ccc(NC(c2ccccc2)n2nc(COc3cccc4ccccc34)oc2=S)cc1` (centres undefined) were “Non-toxic” and 0.96 µM (≈ 0.903 µg/mL). With `O=[N+]([O-])c1ccc(-c2nn(C(Nc3ccc(S(=O)(=O)c4ccc(NC(c5ccccc5)n5nc(-c6ccc([N+](=O)[O-])cc6)oc5=S)cc4)cc3)c3ccccc3)c(=S)o2)cc1` (centres undefined), the Activity entry in series [1] is recorded as “Non-toxic”. Further, the minimal inhibitory concentration (MIC) in series [2] turned out to be 1.94 µM (≈ 1.69 µg/mL). In series [2], `NNC(=O)c1ccncc1` [ISONIAZID] came in with an MIC of 0.73 µM (≈ 0.1 µg/mL).
